Details: amide bond; 32-membered ring

First: Benzyl tert-butyl ((7R,11S,19aS,26R,30S,38aS)-11-cyclohexyl-30-isopropyl-12,15,31,34-tetramethyl-6,10,13,16,19,25,29,32,35,38-decaoxohexatriacontahydro-2H,6H-dipyrido[1,2-a:1′,2′-q][1,4,7,10,13,17,20,23,26,29]decaazacyclodotriacontine-7,26-diyl)dicarbamate
Second: Benzyl tert-butyl ((7′R,19a'S,26′R,30'S,38a'S)-30′-isopropyl-12′,15′,31′,34′-tetramethyl-6′,10′,13′,16′,19′,25′,29′,32′,35′,38′-decaoxotetratriacontahydro-2′H,6′H,12′H-spiro[cyclobutane-1,11′-dipyrido[1,2-a:1′,2′-q][1,4,7,10,13,17,20,23,26,29]decaazacyclodotriacontine]-7′,26′-diyl)dicarbamate
The ring closure, isolated yield of the first is higher: 58% for the first, 43% for the second.

First: Tert-butyl (4-nitrobenzyl) ((7R,11R,19aS,26R,30S,38aS)-11-((S)-sec-butyl)-30-isopropyl-12,15,31,34-tetramethyl-6,13,16,19,25,29,32,35,38-nonaoxotetratriacontahydro-2H,6H,10H-dipyrido[2,1-b1: 2′,1′-l][1]oxa[4,7,10,13,17,20,23,26,29]nonaazacyclodotriacontine-7,26-diyl)dicarbamate
Second: Dibenzyl ((7R,11S,19aS,26R,30S,38aS)-11-((R)-1-(tert-butoxy)ethyl)-30-isopropyl-12,15,31,34-tetramethyl-6,10,13,16,19,25,29,32,35,38-decaoxohexatriacontahydro-2H,6H-dipyrido[1,2-a:1′,2′-q][1,4,7,10,13,17,20,23,26,29]decaazacyclodotriacontine-7,26-diyl)dicarbamate
The ring closure, isolated yield of the first is lower: 72% for the first, 91% for the second.

Compared with “Bis(4-nitrobenzyl) ((7R,11S,19aS,26R,30S,38aS)-11,30-diisopropyl-12,15,31,34-tetramethyl-6,13,16,19,25,32,35,38-octaoxodotriacontahydro-2H,6H,10H,25H-dipyrido[2,1-b1: 2′,1′-l][1,17]dioxa[4,7,10,13,20,23,26,29]octaazacyclodotriacontine-7,26-diyl)dicarbamate”, “Benzyl tert-butyl ((7R,11S,19aS,26R,30S,38aS)-11,30-diisopropyl-12,31-dimethyl-6,10,13,19,25,29,32,38-octaoxodotriacontahydro-2H,6H,16H,25H-dipyrido[1,2-a1:1′,2′-k][1,17]dioxa[4,7,11,14,20,23,27,30]octaazacyclodotriacontine-7,26-diyl)dicarbamate” is lower in ring closure, isolated yield: 68% for the first, 58% for the second.

“Benzyl tert-butyl ((7R,11S,19aS,26R,30S,38aS)-11,30-diisopropyl-12,31-dimethyl-6,10,13,16,19,25,29,32,35,38-decaoxohexatriacontahydro-2H,6H-dipyrido[1,2-a:1′,2′-q][1,4,7,10,13,17,20,23,26,29]decaazacyclodotriacontine-7,26-diyl)dicarbamate” gave a ring closure, isolated yield of 53%.
